Columns and labels:
Thrips [1] = experiment: Thrips damage rating on cotton plants (Fibermax cotton variety 960), Example 2; format: in vivo; settings: 1 = no damage, 5 = dead
From the text: This example illustrates the effect of the compositions from Table 1 for cotton plants planted in soil known to have nematode (Rotylenchulus reniformis) pressure. FIGS. 4 and 5 illustrate the Thrips damage ratings at three and four weeks, respectively, after planting. FIG. 6 illustrates the plant height seven weeks after planting. The cotton plants utilized were commercially available Fibermax cotton variety 960.

Thrips [2] = experiment: Thrips damage rating on cotton plants (Delta and Pineland variety 555), Example 1; format: in vivo; settings: cotton variety 555, 1 = no damage, 5 = plant completely damaged (dead)
From the text: This example illustrates the effect of a composition of the invention on cotton plant damage and plant height for cotton plants planted in soil known to have nematode (Rotylenchulus reniformis) pressure. The cotton plants utilized were commercially available Delta and Pineland variety 555.
The compositions described in Table 1 below were applied either as a seed treatment (Samples B, C, and E-G) or in furrow (Sample D) at the respective application rates set forth in Table 1.

Structure (SMILES) | Thrips Damage Rating (Thrips [1]; 3 weeks after planting) | Thrips Damage Rating (Thrips [1]; 4 weeks after planting) | Thrips Damage Rating (Thrips [2]; 3 weeks after planting) | Thrips Damage Rating (Thrips [2]; 4 weeks after planting)
O=[N+]([O-])NC1=NCCN1Cc1ccc(Cl)nc1 [B, imidacloprid] | 2.63 | 2.5 | 2 | 2.3
O=[N+]([O-])NC1=NCCN1Cc1ccc(Cl)nc1 [E, imidacloprid] | 2.88 | 3 | 2.25 | 2.4
CNC(=O)O/N=C/C(C)(C)SC [Sample D, aldicarb] | 2.5 | 2.1 | 1.13 | 1.5

From patent publication US20090099127A1, “Nematicidal Compositions and Methods” (priority 2005, published 2009)
